Where “and” joins values, the source holds several entries; their conditions need not be identical. Identical values can stand only once. No end group written: not given here.
Experiments:
[1] = tested on: pepsin and trypsin/chymotrypsin (PTC); assay: Enzymatic hydrolysis of the 33-mer with pepsin and trypsin/chymotrypsin (PTC); type: in vitro ADME; conditions: untargeted LC-MS/MS
Protocol: Preliminary experiments using a combination of pepsin and trypsin/chymotrypsin (PTC) for enzymatic hydrolysis were performed with the 33-mer. This PTC hydrolysate of the 33-mer was analysed by untargeted LC-MS/MS followed by data evaluation using the MS/MS ions search module of the Mascot software based on the NCBI database (National Library of Medicine, Bethesda, MD, USA). In addition to the original 33-mer, the truncated forms after N-terminal removal of leucine resulting in a 32-mer (m/z 950.0, 4+ and m/z 1266.3, 3+) and pyro-32-mer (m/z 945.7, 4+ and m/z 1260.6, 3+) were identified, but no 30-mer (m/z 889.7, 4+ and m/z 1185.9, 3+) after potential removal of N-terminal LQL. The ratio 33-mer/32-mer/pyro-32-mer was about 12/76/12. To see whether cleavage of the N-terminal leucine could be minimised, only chymotrypsin was used for further experiments. […]
(§1) First, flours (150–200 mg) were defatted with pentane/ethanol (95/5, v/v; 2 × 2.0 mL)[40]. […] The obtained peptide mixture was dried using a vacuum centrifuge (40 °C, 6 h, 800 Pa), re-dissolved in FA (0.1%, v/v, 500 μL), filtered (0.45 μm) and analysed by targeted LC-MS/MS. […] MJO, which were all analysed by untargeted LC-MS/MS. […]

α-chymotrypsin [2] = target: T1, α-chymotrypsin (Bos taurus, UniProt P00766, DEL14-15/DEL147-148); assay: Resistance to chymotryptic cleavage; type: in vitro ADME, bovine pancreas; conditions: peptide 10 μg/ml, 0.1 mol/L TRIS-HCl pH 7.8, urea 120 mg/mL, α-chymotrypsin E:P 1:200, 24 h, 37 °C
T1 construct: purchased Sigma-Aldrich (Steinheim, Germany)
Protocol: Preliminary experiments using a combination of pepsin and trypsin/chymotrypsin (PTC) for enzymatic hydrolysis were performed with the 33-mer. This PTC hydrolysate of the 33-mer was analysed by untargeted LC-MS/MS followed by data evaluation using the MS/MS ions search module of the Mascot software based on the NCBI database (National Library of Medicine, Bethesda, MD, USA). In addition to the original 33-mer, the truncated forms after N-terminal removal of leucine resulting in a 32-mer (m/z 950.0, 4+ and m/z 1266.3, 3+) and pyro-32-mer (m/z 945.7, 4+ and m/z 1260.6, 3+) were identified, but no 30-mer (m/z 889.7, 4+ and m/z 1185.9, 3+) after potential removal of N-terminal LQL. The ratio 33-mer/32-mer/pyro-32-mer was about 12/76/12. To see whether cleavage of the N-terminal leucine could be minimised, only chymotrypsin was used for further experiments. Therefore, the 33-mer peptide was incubated with chymotrypsin using exactly the same conditions as described for the samples to check its resistance towards cleavage, because it contains two potential chymotryptic cleavage sites at positions L1 and L3. […] Full MS/MS scans were also done for the chymotryptic hydrolysates of the albumin/globulin and gliadin fractions obtained from wheat cv. MJO. […] This is consistent with the original report by Shan et al.[4] who only observed pepsin-catalysed cleavage of the N-terminal leucine. Additionally, no analyte loss is expected to take place during sample preparation, which involves the removal of albumins/globulins.
as §1, with “mL)[40]. The gliadin fractions from the different defatted flours were extracted as described above.” for “mL)[40].”

intestinal peptidases [3] = conditions: 5 (Shan et al. 2002); cited from earlier work
Text: All gluten protein fractions, namely the alcohol-soluble prolamins and the insoluble glutelins, contain CD-active epitopes. The prolamin fraction is particularly rich in proline and glutamine and the numerous proline residues lead to a high resistance to complete proteolytic digestion by human gastric, pancreatic, and brushborder enzymes. […] The 33-mer is widely ca ...

pepsin = assay: pepsin; conditions: cited from earlier work
intestinal peptidases [4] = assay: intestinal peptidases; conditions: cited from earlier work
[5] = tested on: tissue transglutaminase (TG2); assay: tissue transglutaminase (TG2); conditions: cited from earlier work
α-chymotrypsin [6] = assay: α-chymotrypsin (E:P ratio of 1:200) in TRIS-HCl-buffer (0.1 mol/L TRIS-HCl, pH 7.8, urea 120 mg/mL); conditions: bovine pancreas, 37 °C, up to 24 h
[7] = tested on: pepsin and trypsin/chymotrypsin (PTC); assay: pepsin (in 0.01 mol/L HCl, pH 2.0, E:P ratio of 1:25) followed by trypsin and α-chymotrypsin (in 0.05 mol/L phosphate buffer, pH 6.5, E:P ratio of 1:200); conditions: porcine gastric mucosa (pepsin); bovine pancreas (trypsin, α-chymotrypsin), 37 °C, up to 60 min (pepsin) followed by 120 min (trypsin and α-chymotrypsin)

LQLQPFPQPQLPYPQPQLPYPQPQLPYPQPQPF [33-mer]
ratio 33-mer/32-mer/pyro-32-mer in the PTC hydrolysate ([1]; pepsin in 0.01 mol/L HCl, pH 2.0, 60 min, 37 °C, E:P 1:25, then trypsin and α-chymotrypsin in 0.05 mol/L phosphate buffer, pH 6.5, 120 min, 37 °C, E:P 1:200, Mascot, preliminary experiments): about 12/76/12 | 30-mer after potential removal of N-terminal LQL in the PTC hydrolysate ([1]; same PTC conditions as E1): no 30-mer | forms detected after incubation with chymotrypsin, full MS/MS scans of the m/z of 32-mer, pyro-32-mer and 30-mer (α-chymotrypsin [2]; full MS/MS scans, target mass ± 1): only the intact 33-mer | truncated forms after incubation with chymotrypsin, untargeted LC-MS/MS (α-chymotrypsin [2]; untargeted LC-MS/MS): no truncated forms | cleavage by intestinal peptidases (intestinal peptidases [3]): resistant to cleavage by intestinal peptidases

LQLQP*FPQPQLPYPQPQLPYPQPQLPYPQ*PQ*P*F [*33-mer, [13C28]- and [15N4]-labelled 33-mer peptide used as isotopically labelled internal standard]
stability towards chymotryptic cleavage, looking for *32-mer, pyro-*32-mer and *30-mer (α-chymotrypsin [2]; full MS/MS scans): stable under the conditions applied

LQLQPFPQPQLPYPQPQLPYPQPQLPYPQPQPF
cleaved bond (pepsin): leucine1-Q | not cleaved (intestinal peptidases [4]): resistant to cleavage by intestinal peptidases | fragment found [5]: 33-mer deamidated at glutamine 72 and 33-mer deamidated at glutamine 65 | not cleaved (α-chymotrypsin [6]): no detectable amounts of 32-mer, pyro-32-mer or 30-mer, only the intact 33-mer | cleaved bond [7]: leucine1-Q | fragment found [7]: pyro-32-mer | not cleaved [7]: no 30-mer identified
